The values that follow come from patent publication US10077261B2, “Imidazolin-5-one derivative useful as FASN inhibitors for the treatment of cancer” (Janssen Pharmaceutica NV, priority 2012, dated 2018).

The test system of assay [1] is A2780 ovarian cells. Kind of assay: A2780 ovarian cell proliferation assay in lipid reduced medium, with palmitate (MTT). The following applies: Homo sapiens, A2780, 96 h; read-out: pIC50 A2780 Ovarian Cell, With Palmitate (converted). In kind it is cell-based. A digest of the protocol: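 Seeded cells were switched next day to lipid-reduced serum, exposed to compound and 25 μM palmitate complexed with fatty-acid-free BSA, and incubated 96 h. Proliferation was then determined by MTT absorbance at 544 nm, with a best-fit curve of signal against concentration.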

For assay [2], the system named is A2780 ovarian cells. Kind of assay: A2780 ovarian cell proliferation assay in lipid reduced medium, without palmitate (MTT). It counts as cell-based. Particulars: Homo sapiens, A2780, 96 h; read-out: pIC50 A2780 Ovarian Cell, Without Palmitate (converted).
The subject of assay [3] is LNCaP-Vancouver prostate cells. Kind of assay: In vitro LNCaP Vancouver prostate cell proliferation assay in lipid reduced medium. In kind it is cell-based. The following applies: read-out: pIC50 LNCaP_Vancouver prostate cell (converted). As to the method: LNCaP-Vancouver prostate cells were obtained from the Vancouver Prostate Cancer Centre. Cells were maintained in RPMI-1640, 10% Fetal Calf Serum (FCS, Hyclone), 2 mM glutamine and 50 μg/ml Gentamicin.
For the proliferation experiment 1500 LNCaP-Vancouver cells per well were seeded in a 384-well black with clear bottom plate (costar 3712BC) in 40 μl RPMI-1640, 10% Lipid reduced serum (LRS, Hyclone), 50 μg/ml Gentamicin and 2 mM Glutamine and incubated at 37° C., 5% CO2. The next day 10 μl of test compound/DMSO diluted in medium was added (3E-5M, 1E-5M, 3E-6M, 1E-6M, 3E-7M, 1E-7M, 3E-8M, 1E-8M final concentration). Compounds were tested in duplicate. After 96 h incubation at 37° C., 5% CO2 25 μl ATP-glow mix was added. The plate was incubated for 30 min at 37° C. and luminescence was measured with the Envision.
Analysis: Determination of pIC50 Values
pIC50 values were calculated as follows.
where mLC and mHC are the means of the low control wells and high control wells on the plate, after manual exclusion of outliers. The relation between the % Controlmin values and concentration was fitted to a 4-parameter logistic curve using a non-linear least squares regression method to determine the pIC50 value. Outlying data points were excluded manually to get a correct fit. The pIC50 corresponds to −log 10(IC50), if the IC50 is expressed in molar units (http://www.ncbi.nlm.nih.gov/books/NBK91994). The IC50 parameter was always determined by non-linear regression, but one or more of the other parameters may have been held fixed on a relevant input value, such as 0 for the bottom values.
For dose response curves with FASN inhibitors in LNCaP-Vancouver or PC-3M-Luc-C6 cells the curves bottom out around 30 to 40% of the control value. A standard fit PL2, forcing the lower bound to this level was used.
Representative compounds of the present invention were tested according to the procedure as described in Biological Example 4a and 4b above, with results as listed in Table 9, below.

In assay [4] the target is T1, hFASN enzyme (full length) (Homo sapiens, UniProt P49327).
T1 construct: 10 μL hFASN enzyme (full length, 300 ng, purified in house); made in house
As to the kind of experiment: Fatty Acid Synthase (FASN) inhibition scintillation proximity assay. Particulars: for inhibition at 10 µM: read-out: Human FASN % inhibition @ 10 μM, 10 μM test compound; for IC50: read-out: Human FASN pIC50 (converted). It counts as biochemical. In outline:
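Purified full-length hFASN (300 ng) converts ^3H-acetyl-CoA plus malonyl-CoA to ^3H-palmitate in 100 mM KH2PO4 pH 7.5, 1 mM DTT; compounds tested at 0.01–30 μM. Product captured on streptavidin imaging beads and read by LEADseeker at 610 nm after ≥24 h; 4-parameter logistic fit versus controls.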
Background: Scintillation proximity formats need no separation of bound from free tracer.

Assay [5] deals with Fatty Acid Synthase Keto-reductase Domain (FASN KR) (Homo sapiens, UniProt P49327). As to the kind of experiment: Fatty Acid Synthase keto-reductase domain (FASN KR) inhibition, NADPH oxidation at 340 nm.
Sequence of Fatty Acid Synthase Keto-reductase Domain (FASN KR) (P49327 whole entry, the tested form may be a part): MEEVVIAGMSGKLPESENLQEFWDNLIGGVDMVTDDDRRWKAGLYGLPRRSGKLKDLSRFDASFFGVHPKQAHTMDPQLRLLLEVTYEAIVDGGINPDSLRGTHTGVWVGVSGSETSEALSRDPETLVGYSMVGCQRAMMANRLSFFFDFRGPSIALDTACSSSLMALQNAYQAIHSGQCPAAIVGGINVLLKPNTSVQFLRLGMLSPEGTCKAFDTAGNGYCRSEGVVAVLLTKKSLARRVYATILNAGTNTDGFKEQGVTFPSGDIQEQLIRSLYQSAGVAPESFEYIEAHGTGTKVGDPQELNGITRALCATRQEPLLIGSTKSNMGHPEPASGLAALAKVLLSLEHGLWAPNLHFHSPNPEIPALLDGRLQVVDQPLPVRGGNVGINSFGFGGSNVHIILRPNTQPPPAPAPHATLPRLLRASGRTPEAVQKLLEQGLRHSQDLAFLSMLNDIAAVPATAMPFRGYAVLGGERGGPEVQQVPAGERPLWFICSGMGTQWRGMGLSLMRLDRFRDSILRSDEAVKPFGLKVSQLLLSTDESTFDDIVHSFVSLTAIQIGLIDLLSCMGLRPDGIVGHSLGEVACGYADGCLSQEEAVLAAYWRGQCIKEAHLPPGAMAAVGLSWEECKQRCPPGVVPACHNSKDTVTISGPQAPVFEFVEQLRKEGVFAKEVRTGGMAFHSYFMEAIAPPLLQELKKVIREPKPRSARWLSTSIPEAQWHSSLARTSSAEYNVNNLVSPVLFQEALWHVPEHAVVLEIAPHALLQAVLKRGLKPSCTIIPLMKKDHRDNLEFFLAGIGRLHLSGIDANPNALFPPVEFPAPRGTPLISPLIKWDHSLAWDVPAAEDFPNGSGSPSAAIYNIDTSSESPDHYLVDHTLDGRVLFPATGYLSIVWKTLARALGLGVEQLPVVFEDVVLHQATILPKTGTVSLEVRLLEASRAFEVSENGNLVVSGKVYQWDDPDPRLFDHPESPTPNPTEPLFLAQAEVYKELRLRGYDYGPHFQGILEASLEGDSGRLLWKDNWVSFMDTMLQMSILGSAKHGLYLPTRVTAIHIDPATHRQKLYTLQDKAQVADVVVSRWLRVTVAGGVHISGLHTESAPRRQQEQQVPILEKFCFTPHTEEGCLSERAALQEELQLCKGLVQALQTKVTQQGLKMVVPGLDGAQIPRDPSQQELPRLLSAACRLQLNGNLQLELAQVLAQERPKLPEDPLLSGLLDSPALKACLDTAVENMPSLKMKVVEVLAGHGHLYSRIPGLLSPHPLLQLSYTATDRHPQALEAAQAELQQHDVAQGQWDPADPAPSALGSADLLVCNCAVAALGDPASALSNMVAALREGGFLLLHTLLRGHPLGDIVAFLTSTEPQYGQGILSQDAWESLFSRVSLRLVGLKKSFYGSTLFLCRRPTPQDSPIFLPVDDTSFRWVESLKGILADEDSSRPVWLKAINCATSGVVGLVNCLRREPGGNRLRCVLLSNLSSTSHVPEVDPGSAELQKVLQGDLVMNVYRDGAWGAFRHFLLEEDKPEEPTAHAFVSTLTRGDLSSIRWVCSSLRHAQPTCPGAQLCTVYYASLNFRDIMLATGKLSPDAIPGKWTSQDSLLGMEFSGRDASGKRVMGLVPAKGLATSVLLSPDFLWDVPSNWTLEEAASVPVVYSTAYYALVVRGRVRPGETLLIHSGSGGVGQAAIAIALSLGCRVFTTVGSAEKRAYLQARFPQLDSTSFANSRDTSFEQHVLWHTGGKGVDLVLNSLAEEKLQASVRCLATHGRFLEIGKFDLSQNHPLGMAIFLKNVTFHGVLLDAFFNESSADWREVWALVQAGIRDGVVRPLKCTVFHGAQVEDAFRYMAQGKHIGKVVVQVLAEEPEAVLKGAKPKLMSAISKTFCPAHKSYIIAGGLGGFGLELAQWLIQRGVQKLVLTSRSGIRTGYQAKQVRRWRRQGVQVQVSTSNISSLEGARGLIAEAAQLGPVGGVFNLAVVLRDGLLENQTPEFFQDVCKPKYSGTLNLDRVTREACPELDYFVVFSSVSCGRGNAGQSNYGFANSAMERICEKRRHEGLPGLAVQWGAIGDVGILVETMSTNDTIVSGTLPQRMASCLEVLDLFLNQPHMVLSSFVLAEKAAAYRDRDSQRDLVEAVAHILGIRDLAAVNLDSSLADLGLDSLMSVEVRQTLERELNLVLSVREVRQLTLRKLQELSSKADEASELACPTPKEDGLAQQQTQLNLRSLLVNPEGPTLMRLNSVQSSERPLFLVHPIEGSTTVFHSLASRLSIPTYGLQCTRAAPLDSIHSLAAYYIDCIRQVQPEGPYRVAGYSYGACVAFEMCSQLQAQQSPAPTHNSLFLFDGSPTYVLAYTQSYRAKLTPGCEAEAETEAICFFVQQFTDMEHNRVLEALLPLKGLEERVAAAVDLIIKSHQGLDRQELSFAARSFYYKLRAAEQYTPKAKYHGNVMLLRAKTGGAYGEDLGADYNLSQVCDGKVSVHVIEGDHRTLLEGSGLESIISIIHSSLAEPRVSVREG
Protocol: After 20 minutes incubation at room temperature the plate was measured again (T2).
The decrease in absorbance was calculated as (Absorbance before incubation T1)−(Absorbance following incubation T2).
A plot of Controlmin versus test compound concentration was fitted to a 4-parameter logistic curve using a non-linear least squares regression method.

T1 sequence (P49327 whole entry): as the sequence (P49327 whole entry, the tested form may be a part) above

Turning to `O=C(C1CC1)N1CC[C@@H](CN2C(=O)C3(CC3)N=C2c2ccc(-c3ccc4cc(F)ccc4c3)cc2)C1` [compound 311, (R)-6-((1-(cyclopropanecarbonyl)pyrrolidin-3-yl)methyl)-5-(4-(6-fluoronaphthalen-2-yl)phenyl)-4,6-diazaspiro[2.4]hept-4-en-7-one], the IC50 was > 10000 nM with A2780 ovarian cells [1], ~229 nM with A2780 ovarian cells [2] and 302 nM in assay [3].
In general, inhibition refers to the change of the read-out against control, counted positive when it falls. Regarding `Cc1ccc2cc(-c3ccc(C4=NC5(CC5)C(=O)N4CC4CN(C(=O)C5CC5)C4)cc3)ccc2n1` [compound 510, 6-{[1-(Cyclopropylcarbonyl)azetidin-3-yl]methyl}-5-[4-(2-methylquinolin-6-yl)phenyl]-4,6-diazaspiro[2.4]hept-4-en-7-one], the inhibition at 10 µM in assay [4] amounted to 80%. Also, the figures for the IC50 in assay [4], in assay [3] and in assay [5] were 955 nM, 4790 nM and 5370 nM, respectively.
For `O=C([C@H]1CCCO1)N1CC[C@@H](CN2C(=O)C3(CCOCC3)N=C2c2ccc(-c3ccc4occc4c3)cc2)C1` [compound 669, 2-[4-(1-Benzofuran-5-yl)phenyl]-3-({(3R)-1-[(2R)-tetrahydro-furan-2-ylcarbonyl]pyrrolidin-3-yl}methyl)-8-oxa-1,3-diazaspiro[4.5]dec-1-en-4-one], the IC50 in assay [3] is 2820 nM.
For `Cn1ncc2cc(-c3ccc(C4=NC5(CCOCC5)C(=O)N4C[C@@H]4CCN(C(=O)C5CC5)C4)cc3)ccc21` [compound 672, 3-{[(3R)-1-(Cyclopropylcarbonyl)pyrrolidin-3-yl]methyl}-2-[4-(1-methyl-1H-indazol-5-yl)phenyl]-8-oxa-1,3-diazaspiro[4.5]dec-1-en-4-one], the IC50 is > 10000 nM in the assay with A2780 ovarian cells [1], ~407 nM in the assay with A2780 ovarian cells [2] and 2630 nM in assay [3].
`O=C(C1CC1)N1CC[C@@H](CN2C(=O)C3(CCOC3)N=C2c2ccc(-c3ccc4cccnc4c3)cc2)C1` (stereo partly drawn) [compound 680, 3-{[(3R)-1-(Cyclopropylcarbonyl)pyrrolidin-3-yl]methyl}-2-(4-quinolin-7-ylphenyl)-7-oxa-1,3-diazaspiro[4.4]non-1-en-4-one]: the inhibition at 10 µM in assay [4] came out at 98%. In addition, the IC50 in assay [4] is 79.4 nM; in assay [3], 339 nM; in assay [5] it was 224 nM.
On to `O=C(C1CC1)N1CC[C@@H](CN2C(=O)C3(CCOC3)N=C2c2ccc(-c3ccc4occc4c3)cc2)C1` (stereo partly drawn) [compound 686, 2-[4-(1-Benzofuran-5-yl)phenyl]-3-{[(3R)-1-(cyclopropylcarbonyl)pyrrolidin-3-yl]methyl}-7-oxa-1,3-diazaspiro[4.4]non-1-en-4-one], for which the inhibition at 10 µM in assay [4] was determined as 98%. In addition, the IC50 in assay [4] is 182 nM; in assay [3], 3800 nM; in assay [5] it was 676 nM.
Regarding `Cn1ncc2cc(-c3ccc(C4=NC5(CCOC5)C(=O)N4C[C@@H]4CCN(C(=O)C5CC5)C4)cc3)ccc21` (stereo partly drawn) [compound 690, 3-{[(3R)-1-(Cyclopropylcarbonyl)pyrrolidin-3-yl]methyl}-2-[4-(1-methyl-1H-indazol-5-yl)phenyl]-7-oxa-1,3-diazaspiro[4.4]non-1-en-4-one], the IC50 in the assay with A2780 ovarian cells [1] is > 10000 nM; with A2780 ovarian cells [2] it was 708 nM; in assay [3], 2340 nM.
On to `CC(C)C(=O)N1CCC2(CC1)N=C(c1ccc(-c3ccc4[nH]ccc4c3)cc1)N(CC1CN(C(=O)C3CC3)C1)C2=O` [compound 753, 3-{[1-(Cyclopropylcarbonyl)azetidin-3-yl]methyl}-2-[4-(1H-indol-5-yl)phenyl]-8-(2-methylpropanoyl)-1,3,8-triazaspiro[4.5]dec-1-en-4-one], for which the inhibition at 10 µM in assay [4] came out at 107%. Also, the IC50 in assay [4] was 135 nM; with A2780 ovarian cells [1] it was > 10000 nM; in the assay on A2780 ovarian cells [2], ~245 nM; in assay [5], 646 nM.
For `COCCN1CCC2(CC1)N=C(c1ccc(-c3ccc4[nH]ccc4c3)cc1)N(CC1CN(C(=O)C3CC3)C1)C2=O` [compound 755, 3-{[1-(Cyclopropylcarbonyl)azetidin-3-yl]methyl}-2-[4-(1H-indol-5-yl)phenyl]-8-triazaspiro[4.5]dec-1-en-4-one], in that order: 107%, 229 nM, > 6170 nM, ~316 nM and 631 nM.
For `O=C(C1CC1)N1CC(CN2C(=O)C3(CCN(CCO)CC3)N=C2c2ccc(-c3ccc4[nH]ccc4c3)cc2)C1` [compound 757, 3-{[1-(Cyclopropylcarbonyl)azetidin-3-yl]methyl}-8-(2-hydroxyethyl)-2-[4-(1H-indol-5-yl)phenyl]-1,3,8-triazaspiro[4.5]dec-1-en-4-one], in that order: 104%, 158 nM, > 10000 nM, 708 nM and 1000 nM.
With `O=C(C1CC1)N1CC[C@@H](CN2C(=O)C3(CCCC3)N=C2c2ccc(-c3ccc4[nH]ccc4c3)cc2F)C1` [compound 845, (R)-3-((1-(cyclopropanecarbonyl)pyrrolidin-3-yl)methyl)-2-(2-fluoro-4-(1H-dinol-5-yl)phenyl)-1,3-diazaspiro[4.4]non-1-en-4-one], in assay [4], the inhibition at 10 µM worked out at 106%. Moreover, the IC50 in assay [4] is 20 nM; in the assay on A2780 ovarian cells [1], > 10000 nM; in the assay on A2780 ovarian cells [2], 11 nM; in assay [5], 25.1 nM.
For `O=C(C1CC1)N1CC[C@@H](CN2C(=O)C3(CCCC3)N=C2c2ccc(-c3ccc4cc[nH]c4c3)cc2F)C1` [compound 874, (R)-3-((1-(cyclopropanecarbonyl)pyrrolidin-3-yl)methyl)-2-(2-fluoro-4-(1H-indol-6-yl)phenyl)-1,3-diazaspiro[4.4]non-1-en-4-one], in that order: 108%, 25.1 nM, > 10000 nM, 20.9 nM and 40.7 nM.
For `O=C(N1CC[C@@H](CN2C(=O)C3(CCCC3)N=C2c2ccc(-c3ccc4occc4c3)cc2)C1)C1(O)CC1` [compound 878, (R)-2-(4-(benzofuran-5-yl)phenyl)-3-((1-(1-hydroxycyclopropanecarbonyl)pyrrolidin-3-yl)methyl)-1,3-diazaspiro[4.4]non-1-en-4-one], in that order: 113%, 36.3 nM, > 10000 nM, ~93.3 nM and 60.3 nM.
For `Cc1nnc(-c2ccc(-c3ccc(C4=NC5(CCCC5)C(=O)N4C[C@@H]4CCN(C(=O)C5CC5)C4)c(C)c3)cc2)o1` [compound 882, (R)-3-((1-(cyclopropanecarbonyl)pyrrolidin-3-yl)methyl)-2-(3-methyl-4′-(5-methyl-1,3,4-oxadiazol-2-yl)-[1,1′-biphenyl]-4-yl)-1,3-diazaspiro[4.4]non-1-en-4-one], in that order: 107%, 135 nM, > 10000 nM, ~89.1 nM and 295 nM.
Turning to `Cc1cc(-c2ccc3c(c2)OCO3)ccc1C1=NC2(CCCC2)C(=O)N1C[C@@H]1CCN(C(=O)C2CC2)C1` [compound 883, (R)-2-(4-(benzo[d][1,3]dioxol-5-yl)-2-methylphenyl)-3-((1-(cyclopropanecarbonyl)pyrrolidin-3-yl)methyl)-1,3-diazaspiro[4.4]non-1-en-4-one], the inhibition at 10 µM in assay [4] is 100%. Further, the IC50 was 269 nM in assay [4], > 10000 nM in the assay with A2780 ovarian cells [1], ~2450 nM with A2780 ovarian cells [2] and 1050 nM in assay [5].
